Reference: patent US9056923B2, “Mimetic peptides derived from collagen type IV and their use for treating angiogenesis- and lymphagiogenesis-dependent diseases” (THE JOHNS HOPKINS UNIVERSITY, priority 2010, dated 2015)
Like-named read-outs stand apart in the source and are kept apart here. Ends that are not written are not given here.

Assays:
[1] = test system: microvascular endothelial cells (MEC); assay: MEC migration assay; type: cell-based
Method: (§1) The inhibitory potential of the peptides was measured using a real time migration assay system based on electrical impedance (RT-CIM, ACEA Biosciences, CA). CIM 16 well plates (Roche, 05665817001) are composed of a top and bottom chamber separated by a microporous (8 μm) polycarbonate membrane. The membrane was coated with fibronectin (20 μg/mL), and 45,000 cells/well in serum free media with or without peptides were added to the top compartment. Media with chemoattractant (i.e., fully supplemented EBM-2) was added to the bottom compartment of the chamber and the plate was incubated at 37° C. for 20 hours. The sensors integrated on the bottom side of the membrane monitor and continuously record changes in impedance as the cells move through the membrane. The RT-CIM technology allows for easy quantification of cell migration by monitoring the cell index derived from the measured impedances. Assays were performed in at least two independent replicates and each replicate was performed using two experimental duplicates.

[2] = test system: MDA-MB-231 xenograft; assay: MDA-MB-231 orthotopic breast tumor xenograft; type: in vivo, SCID mice
Method: For primary tumor inhibition studies, 1−2×10^6 tumor cells were injected into 4-6 wk old female SCID mice. After the tumors reached a size of 100 mm^3 the animals were randomized into groups of 10 animals each. The animals were treated with vehicle, SP2012, SP2000, or SP2024. The peptides were administered subcutaneously daily. Dosing was continued for 3 or 4 weeks and tumor sizes were measured every 3 days using calipers. The tumor volume was estimated using the formula V=a^2b/2 where a and b are the smaller and larger diameters.
For the tumor xenograft assay, animals were housed and treated according to the approved animal protocol of the Institutional Care and Use Committee at Johns Hopkins Medical Institution (JHMI). Orthotopic breast tumors were initiated in SCID mice using MDA-MB-231 cells. 2×10^6 cells per 100 μL aliquot of single cell suspension were injected in the breast mannary fat pad. Tumors reached volumes of 75 mm^3 to 100 mm^3 in approximately 14-21 days. Mice were randomized and arranged in groups (8 mice per group) with similar tumor volumes (no statistical difference among averages) and treatment was commenced. Peptides were administered once per day intraperitoneally (i.p.) at doses of 10 mg/kg (subcutaneous delivery was also tested with certain peptides). Paclitaxel was administered at 5 mg/kg once a week, and to maintain the daily treatment regime PBS was administered on the non-treatment days. Tumors were measured every fourth day using calipers and the tumor volume was calculated using the formula V=ab^2/2, where a is the larger diameter and b is the smaller diameter.

[3] = test system: MDA-MB-231-luc-D3H2LN cells; assay: Tail vein assay of cancer metastasis (lung metastasis); type: in vivo; conditions: luciferase-transfected MDA-MB-231 cells in nude mice, IVIS
Method: The tail vein assay of cancer metastasis protocol from Current Protocols of Cell Biology was used to measure the effect of SP2024 on lung metastasis (Elkin and Vlodaysky, 2001). […] of 5×10^5 cells/mL luciferase-transfected MDA-MB-231-luc-D3H2LN (Caliper Biosciences) cell suspension was slowly injected into nude mice (nude mice are easier to image because of their lack of fur). Two hours before cell inoculation vehicle or 10 mg/kg SP2024 were administered subcutaneously on a daily basis. Bioluminescence to detect metastasis was measured by IVIS imaging (Caliper Biosciences) via IP injection of 150 mg/kg D-luciferin.

[4] = test system: MDA-MB-231 tumors; assay: MRI of tumor vascular volume and permeability surface-area product; type: in vivo, mice; conditions: vs control
Method: MRI of vascular volume and permeability surface-area product (PSP) were determined as follows. Mice with volume-matched tumors were treated with SP2024 or vehicle and imaged 24 h post treatment. The mice were anesthetized and the tail vein was catheterized before placing the animal in the spectrometer. All imaging studies were performed on a 4.7 T Bruker Avance spectrometer, as previously described (Raman et al., 2006; Bhujwalla et al., 2001) using a home-built solenoid coil placed around the tumor. Briefly, multislice relaxation rate (1/T1) maps were obtained by a saturation recovery method combined with fast T1 SNAPSHOT-FLASH imaging (flip angle of 10°, echo time of 2 ms). […] The detectable areas of vascular volume and permeability as well as absolute values of vascular volume and permeability were analyzed. […] Volume fractions of the regions were determined using the histogram analysis of the volume data. […] Statistical significance (p<0.05) within each experiment using the independent replicates was assessed using standard statistical assessments such as Student's t-test and ANOVA accompanied by Dunnett's test if different sets of data were compared to one group.

[5] = test system: lymphatic endothelial cells (LEC); assay: LEC migration assay; type: cell-based
Method: as §1

[6] = test system: HUVEC; type: cell-based, human
Method in brief: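 HUVEC plated at 2000 cells/well overnight, then exposed to peptides in fully supplemented medium for three days. WST-1 added in serum-free EBM-2 for four hours and absorbance read at 450 nm. Percent live cells taken relative to untreated cells in complete medium with 0.2% DMSO.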

LRRFSTMPFMFININNVINF-NH2 [SP2024] was tested, and the “inhibition of migration of MEC” value [1] was “quite active”, the “suppression of tumor growth” value ([2]; MDA-MB-231 xenograft in mice, 10 mg/kg daily) was “inhibited tumor growth significantly over the control” and the MDA-MB-231 xenograft inhibition ([2]; mice) was “Active”. The lung metastasis [3] was “inhibits lung metastasis”, the relative vascular volume [4] was “reduced relative vascular volume” and the “tumor permeability-surface area product” value [4] was “reduced tumor permeability-surface area product”. For the same substance, the “inhibition of migration of LEC” value [5] was “strong”, the IC50 [6] was 1.29 µM and the “Activity in Proliferation” value ([6]; HUVEC, Yes/No summary) was “Yes”. It also gave an IC50 ([6]; HUVEC, tables 5, 8-10 and text, read-out: IC50 ± 95% CI (μM), proliferation) of 7.45 ± 5.7 µM.
